According to ChEMBL document CHEMBL5696441 (Nat Chem Biol, 2011):

Assays:
[1] = target: Calcium/calmodulin-dependent protein kinase type 1D (Homo sapiens) (UniProt Q8IU85); experiment: Inhibition of CAMK1D (unknown origin) assessed as remaining activity at 1 uM by Kinome scan method relative to control
[2] = target: Death-associated protein kinase 3 (Homo sapiens) (UniProt O43293); experiment: Inhibition of DAPK3 (unknown origin) assessed as remaining activity at 1 uM by Kinome scan method relative to control
[3] = target: Phosphatidylinositol 4,5-bisphosphate 3-kinase catalytic subunit alpha isoform (Homo sapiens) (UniProt P42336); experiment: Inhibition of PIK3CA (unknown origin) assessed as remaining activity at 1 uM by Kinome scan method relative to control
[4] = target: Ribosomal protein S6 kinase alpha-2 (Homo sapiens) (UniProt Q15349); experiment: Inhibition of C-terminal kinase domain RPS6KA2 (unknown origin) assessed as remaining activity at 1 uM by Kinome scan method relative to control
Sequence of Ribosomal protein S6 kinase alpha-2 (Homo sapiens) (Q15349 whole entry, the tested form may be a part): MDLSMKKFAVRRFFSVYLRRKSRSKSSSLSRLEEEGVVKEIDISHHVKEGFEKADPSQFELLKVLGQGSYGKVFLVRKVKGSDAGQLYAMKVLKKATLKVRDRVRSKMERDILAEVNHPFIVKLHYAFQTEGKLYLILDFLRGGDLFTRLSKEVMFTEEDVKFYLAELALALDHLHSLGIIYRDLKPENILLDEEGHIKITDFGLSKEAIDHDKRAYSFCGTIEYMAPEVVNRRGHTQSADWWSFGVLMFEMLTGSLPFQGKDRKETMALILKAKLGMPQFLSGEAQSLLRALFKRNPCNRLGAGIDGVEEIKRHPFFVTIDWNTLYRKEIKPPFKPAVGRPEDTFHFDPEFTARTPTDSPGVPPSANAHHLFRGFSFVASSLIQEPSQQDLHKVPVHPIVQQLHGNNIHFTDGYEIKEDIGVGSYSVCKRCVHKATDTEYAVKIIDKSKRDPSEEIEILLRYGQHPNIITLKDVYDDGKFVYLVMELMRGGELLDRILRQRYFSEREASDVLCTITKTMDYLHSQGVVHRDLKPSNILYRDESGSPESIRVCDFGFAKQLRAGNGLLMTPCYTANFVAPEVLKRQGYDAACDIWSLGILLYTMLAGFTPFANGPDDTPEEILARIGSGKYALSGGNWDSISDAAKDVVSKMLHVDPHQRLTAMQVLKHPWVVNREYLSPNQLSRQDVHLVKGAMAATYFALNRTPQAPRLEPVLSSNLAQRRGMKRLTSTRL

[5] = target: SRSF protein kinase 3 (Homo sapiens) (UniProt Q9UPE1); experiment: Inhibition of SRPK3 (unknown origin) assessed as remaining activity at 1 uM by Kinome scan method relative to control
Sequence of SRSF protein kinase 3 (Homo sapiens) (Q9UPE1 whole entry): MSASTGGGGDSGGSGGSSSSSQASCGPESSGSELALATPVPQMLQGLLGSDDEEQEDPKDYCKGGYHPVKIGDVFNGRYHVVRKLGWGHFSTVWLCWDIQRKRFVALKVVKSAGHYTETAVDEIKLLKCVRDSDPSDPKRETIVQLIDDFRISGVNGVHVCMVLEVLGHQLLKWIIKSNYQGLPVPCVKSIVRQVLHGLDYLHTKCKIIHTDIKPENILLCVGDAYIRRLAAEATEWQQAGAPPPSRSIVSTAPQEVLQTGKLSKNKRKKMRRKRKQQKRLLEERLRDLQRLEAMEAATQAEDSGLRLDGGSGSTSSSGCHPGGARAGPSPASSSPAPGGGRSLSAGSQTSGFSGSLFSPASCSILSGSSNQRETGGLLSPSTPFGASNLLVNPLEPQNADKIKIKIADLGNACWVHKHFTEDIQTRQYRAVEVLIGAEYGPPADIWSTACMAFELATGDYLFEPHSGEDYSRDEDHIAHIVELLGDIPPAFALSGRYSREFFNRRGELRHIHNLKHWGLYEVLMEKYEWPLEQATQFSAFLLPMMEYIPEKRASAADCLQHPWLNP

[6] = test system: Tyrosine-protein kinase ABL1 (Homo sapiens), P00519 [Q252H]; experiment: Inhibition of human ABL1 Q252H mutant assessed as residual activity at 1 uM using Poly(Ala,Glu,Lys,Tyr)6:2:5:1 as substrate in presence of 33P-ATP by ProQinase assay relative to control
[7] = target: Casein kinase I isoform epsilon (Homo sapiens) (UniProt P49674); experiment: Inhibition of human CK1epsilon assessed as residual activity at 1 uM using casein as substrate in presence of 33P-ATP by ProQinase assay relative to control
Sequence of Casein kinase I isoform epsilon (Homo sapiens) (P49674 whole entry, looked up, canonical isoform): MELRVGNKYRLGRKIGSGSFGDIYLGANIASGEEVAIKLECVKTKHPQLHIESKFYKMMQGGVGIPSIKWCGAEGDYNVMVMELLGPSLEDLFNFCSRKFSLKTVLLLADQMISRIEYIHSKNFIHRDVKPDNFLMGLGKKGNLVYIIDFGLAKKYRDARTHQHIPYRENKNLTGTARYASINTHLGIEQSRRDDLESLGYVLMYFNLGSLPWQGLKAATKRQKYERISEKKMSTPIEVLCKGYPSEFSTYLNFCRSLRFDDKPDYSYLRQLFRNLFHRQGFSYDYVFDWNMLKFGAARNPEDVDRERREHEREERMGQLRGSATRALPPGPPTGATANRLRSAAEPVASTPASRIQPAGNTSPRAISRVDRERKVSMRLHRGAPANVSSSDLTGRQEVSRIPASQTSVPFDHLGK

[8] = target: T1, Serine/threonine-protein kinase DCLK2 (Homo sapiens) (UniProt Q8N568); experiment: Inhibition of human DCAMKL2 assessed as residual activity at 1 uM using RBER-CHKtide as substrate in presence of 33P-ATP by ProQinase assay relative to control
T1 sequence (whole entry): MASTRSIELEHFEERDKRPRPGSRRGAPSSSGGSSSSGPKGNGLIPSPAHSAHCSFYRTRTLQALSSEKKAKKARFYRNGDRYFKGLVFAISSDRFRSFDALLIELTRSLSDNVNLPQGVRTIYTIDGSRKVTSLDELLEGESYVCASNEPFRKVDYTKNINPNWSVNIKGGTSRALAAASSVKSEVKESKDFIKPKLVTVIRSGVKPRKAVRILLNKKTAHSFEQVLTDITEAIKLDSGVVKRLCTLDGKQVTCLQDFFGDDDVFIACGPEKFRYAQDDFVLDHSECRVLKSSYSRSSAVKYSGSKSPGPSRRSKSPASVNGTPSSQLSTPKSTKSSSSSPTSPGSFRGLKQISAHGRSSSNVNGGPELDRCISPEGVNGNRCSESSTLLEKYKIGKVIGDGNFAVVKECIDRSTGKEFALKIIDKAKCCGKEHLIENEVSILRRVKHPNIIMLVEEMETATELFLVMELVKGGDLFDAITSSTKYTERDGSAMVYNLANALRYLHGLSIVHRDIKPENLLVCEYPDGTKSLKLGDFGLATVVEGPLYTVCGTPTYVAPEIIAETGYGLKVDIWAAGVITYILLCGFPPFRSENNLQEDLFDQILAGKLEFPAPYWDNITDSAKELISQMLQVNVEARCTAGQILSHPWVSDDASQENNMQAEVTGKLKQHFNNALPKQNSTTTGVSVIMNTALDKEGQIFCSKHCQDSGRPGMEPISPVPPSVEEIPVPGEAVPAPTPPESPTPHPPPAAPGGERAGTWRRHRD

[9] = target: Discoidin domain-containing receptor 2 (Homo sapiens) (UniProt Q16832); experiment: Inhibition of human DDR2 assessed as residual activity at 1 uM using poly(Ala,Glu,Lys,Tyr)6:2:5:1 as substrate in presence of 33P-ATP by ProQinase assay relative to control
Sequence of Discoidin domain-containing receptor 2 (Homo sapiens) (Q16832 whole entry, the tested form may be a part): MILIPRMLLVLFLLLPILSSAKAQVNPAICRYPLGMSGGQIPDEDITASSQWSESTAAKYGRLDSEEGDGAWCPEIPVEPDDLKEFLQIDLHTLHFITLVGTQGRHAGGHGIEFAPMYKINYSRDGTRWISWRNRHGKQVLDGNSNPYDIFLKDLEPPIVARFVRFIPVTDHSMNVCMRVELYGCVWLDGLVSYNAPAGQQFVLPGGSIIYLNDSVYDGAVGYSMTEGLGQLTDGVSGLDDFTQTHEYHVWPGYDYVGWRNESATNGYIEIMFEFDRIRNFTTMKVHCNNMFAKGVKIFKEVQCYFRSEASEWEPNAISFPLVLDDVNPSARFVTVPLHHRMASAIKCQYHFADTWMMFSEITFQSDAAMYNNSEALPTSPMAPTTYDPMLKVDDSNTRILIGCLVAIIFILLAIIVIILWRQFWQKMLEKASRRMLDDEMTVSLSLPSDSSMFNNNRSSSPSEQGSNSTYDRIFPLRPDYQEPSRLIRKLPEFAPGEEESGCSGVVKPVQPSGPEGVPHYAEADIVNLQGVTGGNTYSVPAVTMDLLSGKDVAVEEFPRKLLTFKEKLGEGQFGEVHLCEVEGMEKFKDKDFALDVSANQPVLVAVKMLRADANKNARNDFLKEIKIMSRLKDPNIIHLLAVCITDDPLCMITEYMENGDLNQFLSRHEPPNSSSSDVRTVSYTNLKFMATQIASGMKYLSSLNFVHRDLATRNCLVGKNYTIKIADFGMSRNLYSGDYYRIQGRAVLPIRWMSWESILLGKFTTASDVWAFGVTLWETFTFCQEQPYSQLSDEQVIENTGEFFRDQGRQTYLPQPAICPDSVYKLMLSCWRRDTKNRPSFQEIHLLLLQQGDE

[10] = test system: Epidermal growth factor receptor (Homo sapiens), P00533 [G719C]; experiment: Inhibition of human EGFR G719C mutant assessed as residual activity at 1 uM using PolyEY as substrate in presence of 33P-ATP by ProQinase assay relative to control
[11] = target: T2, MAP/microtubule affinity-regulating kinase 4 (Homo sapiens) (UniProt Q96L34); experiment: Inhibition of human MARK4 assessed as residual activity at 1 uM using RBER-CHKtide as substrate in presence of 33P-ATP by ProQinase assay relative to control
T2 sequence (whole entry): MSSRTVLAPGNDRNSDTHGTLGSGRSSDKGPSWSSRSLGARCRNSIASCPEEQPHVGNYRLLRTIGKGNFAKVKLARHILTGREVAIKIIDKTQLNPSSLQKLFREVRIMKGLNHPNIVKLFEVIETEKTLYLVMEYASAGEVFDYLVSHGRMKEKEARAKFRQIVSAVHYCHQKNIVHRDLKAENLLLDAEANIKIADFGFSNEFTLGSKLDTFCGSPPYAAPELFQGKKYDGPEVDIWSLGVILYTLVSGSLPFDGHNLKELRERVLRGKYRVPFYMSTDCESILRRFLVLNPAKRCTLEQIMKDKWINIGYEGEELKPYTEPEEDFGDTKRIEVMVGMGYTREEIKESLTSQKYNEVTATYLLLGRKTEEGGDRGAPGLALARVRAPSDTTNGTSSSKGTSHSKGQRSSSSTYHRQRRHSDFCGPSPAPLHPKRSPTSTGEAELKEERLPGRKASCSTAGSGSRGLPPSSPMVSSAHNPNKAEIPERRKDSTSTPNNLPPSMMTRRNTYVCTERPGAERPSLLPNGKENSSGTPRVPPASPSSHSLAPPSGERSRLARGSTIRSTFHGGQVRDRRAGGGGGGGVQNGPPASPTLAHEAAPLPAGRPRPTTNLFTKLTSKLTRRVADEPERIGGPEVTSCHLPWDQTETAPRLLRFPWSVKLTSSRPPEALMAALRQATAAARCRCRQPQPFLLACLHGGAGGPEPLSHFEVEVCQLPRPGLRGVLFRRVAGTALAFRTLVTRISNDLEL

[12] = target: Serine/threonine-protein kinase Nek6 (Homo sapiens) (UniProt Q9HC98); experiment: Inhibition of human NEK6 assessed as residual activity at 1 uM using RBER-GSK3 as substrate in presence of 33P-ATP by ProQinase assay relative to control
Sequence of Serine/threonine-protein kinase Nek6 (Homo sapiens) (Q9HC98 whole entry): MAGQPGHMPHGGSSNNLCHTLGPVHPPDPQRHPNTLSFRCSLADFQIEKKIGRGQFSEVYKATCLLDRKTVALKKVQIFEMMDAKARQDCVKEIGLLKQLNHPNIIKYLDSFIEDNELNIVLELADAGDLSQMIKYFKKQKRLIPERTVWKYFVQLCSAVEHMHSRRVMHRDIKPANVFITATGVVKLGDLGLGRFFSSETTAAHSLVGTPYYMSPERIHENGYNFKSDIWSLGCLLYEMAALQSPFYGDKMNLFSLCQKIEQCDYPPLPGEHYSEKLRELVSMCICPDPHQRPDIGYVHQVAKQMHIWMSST

[13] = target: Protein kinase C gamma type (Homo sapiens) (UniProt P05129); experiment: Inhibition of human PKCgamma assessed as residual activity at 1 uM using 3xChocktide-PKC(19-31) as substrate in presence of 33P-ATP by ProQinase assay relative to control
[14] = target: Serine/threonine-protein kinase PLK3 (Homo sapiens) (UniProt Q9H4B4); experiment: Inhibition of human PLK3 assessed as residual activity at 1 uM using casein as substrate in presence of 33P-ATP by ProQinase assay relative to control
[15] = target: Tyrosine-protein kinase ZAP-70 (Homo sapiens) (UniProt P43403); experiment: Inhibition of human ZAP70 assessed as residual activity at 1 uM using polyEY as substrate in presence of 33P-ATP by ProQinase assay relative to control
Sequence of Tyrosine-protein kinase ZAP-70 (Homo sapiens) (P43403 whole entry): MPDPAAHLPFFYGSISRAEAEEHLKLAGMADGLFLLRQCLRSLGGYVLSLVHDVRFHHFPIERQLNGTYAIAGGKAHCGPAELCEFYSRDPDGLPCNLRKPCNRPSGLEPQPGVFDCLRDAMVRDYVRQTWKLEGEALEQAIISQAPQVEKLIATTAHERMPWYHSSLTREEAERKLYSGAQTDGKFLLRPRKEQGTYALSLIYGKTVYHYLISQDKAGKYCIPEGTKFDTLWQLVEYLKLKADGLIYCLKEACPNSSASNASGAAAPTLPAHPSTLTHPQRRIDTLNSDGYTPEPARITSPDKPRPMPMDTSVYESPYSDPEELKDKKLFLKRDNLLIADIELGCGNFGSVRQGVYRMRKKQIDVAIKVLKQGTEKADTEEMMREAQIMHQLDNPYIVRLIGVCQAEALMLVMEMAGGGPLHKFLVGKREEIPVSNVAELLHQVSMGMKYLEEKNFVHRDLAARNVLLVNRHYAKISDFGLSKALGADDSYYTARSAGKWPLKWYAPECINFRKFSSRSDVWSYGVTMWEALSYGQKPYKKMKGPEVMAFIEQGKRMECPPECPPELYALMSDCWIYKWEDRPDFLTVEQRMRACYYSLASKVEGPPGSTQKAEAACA

Sequence of Calcium/calmodulin-dependent protein kinase type 1D (Homo sapiens) (Q8IU85 whole entry, looked up): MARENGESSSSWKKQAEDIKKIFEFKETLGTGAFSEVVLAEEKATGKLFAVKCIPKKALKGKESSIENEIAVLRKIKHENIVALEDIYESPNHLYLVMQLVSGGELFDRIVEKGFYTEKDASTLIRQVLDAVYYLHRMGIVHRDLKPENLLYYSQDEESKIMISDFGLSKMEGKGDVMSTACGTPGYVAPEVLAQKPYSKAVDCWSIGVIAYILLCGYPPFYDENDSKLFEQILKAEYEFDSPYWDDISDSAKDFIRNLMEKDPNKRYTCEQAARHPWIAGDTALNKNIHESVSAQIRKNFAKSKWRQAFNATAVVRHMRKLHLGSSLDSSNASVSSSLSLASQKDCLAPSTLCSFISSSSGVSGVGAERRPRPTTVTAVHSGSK

For `O=C1c2ccc(Nc3ccc(F)cc3F)cc2CCc2ccc(OC[C@H](O)CO)cc21` [Skepinone-L], the Activity [1] was 99%, the Activity [2] was 100% and the Activity [3] was 100%. The Activity [4] was 100%, the Activity [5] was 100% and the Activity [6] was 95%. The Activity [7] was 86%, the Activity [8] was 83% and the Activity [9] was 102%. For the same molecule, the Activity [10] was 74%, the Activity [11] was 96% and the Activity [12] was 97%. It also gave an Activity [13] of 99%, an Activity [14] of 99% and an Activity [15] of 98%.
